In patent US11040027B2, “Protein kinase inhibitors for promoting liver regeneration or reducing or preventing hepatocyte death” (HEPAREGENIX GMBH, priority 2017, dated 2021):

Key:
BRaf = BRaf (Homo sapiens, UniProt P15056); test: KINOMEscan competition binding assay, selectivity BRaf versus MKK4; conditions: Test conc. 0.1 μM; ratio of percent of control; N/E* per footnote
Protocol: The assay was performed by combining three components: DNA-tagged kinase; immobilized ligand; and a test compound. The ability of the test compound to compete with the immobilized ligand was measured via quantitative PCR of the DNA tag. The technology is described in detail in Fabian, M. A. et al. A small molecule-kinase interaction map for clinical kinase inhibitors. Nat. […] Nat.
The test compounds were provided as 10 mM stock solutions. The test solutions at indicated final concentrations were prepared at DiscoverX.

MKK4 = biological target: T1, MKK4 (Homo sapiens, UniProt P45985); test: KINOMEscan competition binding assay, MKK4; conditions: read-out: Potency MKK4 (derived from % of control values, PoC)
T1 sequence (P45985 84-399): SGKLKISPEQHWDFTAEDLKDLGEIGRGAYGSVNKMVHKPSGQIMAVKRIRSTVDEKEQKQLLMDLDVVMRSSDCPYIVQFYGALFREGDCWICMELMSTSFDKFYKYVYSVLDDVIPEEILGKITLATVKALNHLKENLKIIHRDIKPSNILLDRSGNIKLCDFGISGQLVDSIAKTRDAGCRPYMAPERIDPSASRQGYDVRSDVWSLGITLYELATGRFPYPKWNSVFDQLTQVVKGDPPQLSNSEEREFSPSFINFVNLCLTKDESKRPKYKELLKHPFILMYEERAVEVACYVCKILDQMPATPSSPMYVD

JNK1 = JNK1 (Homo sapiens, UniProt P45983); test: KINOMEscan competition binding assay, selectivity JNK1 versus MKK4; conditions: ratio of percent of control
MKK7 = biological target: T2, MKK7 (Homo sapiens, UniProt O14733); test: KINOMEscan competition binding assay, selectivity MKK7 versus MKK4; conditions: Test conc. 0.1 μM; ratio of percent of control; N/E* per footnote
T2 sequence (O14733 1-419): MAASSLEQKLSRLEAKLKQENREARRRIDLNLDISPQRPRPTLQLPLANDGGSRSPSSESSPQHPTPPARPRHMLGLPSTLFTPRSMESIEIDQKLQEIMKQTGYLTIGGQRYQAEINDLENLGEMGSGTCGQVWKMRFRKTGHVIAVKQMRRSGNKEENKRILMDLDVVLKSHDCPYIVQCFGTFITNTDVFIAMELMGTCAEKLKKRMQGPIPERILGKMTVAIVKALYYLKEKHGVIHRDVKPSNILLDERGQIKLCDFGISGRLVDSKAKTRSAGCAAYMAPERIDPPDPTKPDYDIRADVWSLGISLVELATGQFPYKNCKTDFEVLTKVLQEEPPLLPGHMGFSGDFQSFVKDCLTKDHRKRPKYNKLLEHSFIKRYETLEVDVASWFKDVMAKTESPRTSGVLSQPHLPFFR

[1] = Test conc 0.1 μM, N/E* = PoC for JNK1 = 100

Sequence of JNK1 (P45983 1-384 isoform P45983-2): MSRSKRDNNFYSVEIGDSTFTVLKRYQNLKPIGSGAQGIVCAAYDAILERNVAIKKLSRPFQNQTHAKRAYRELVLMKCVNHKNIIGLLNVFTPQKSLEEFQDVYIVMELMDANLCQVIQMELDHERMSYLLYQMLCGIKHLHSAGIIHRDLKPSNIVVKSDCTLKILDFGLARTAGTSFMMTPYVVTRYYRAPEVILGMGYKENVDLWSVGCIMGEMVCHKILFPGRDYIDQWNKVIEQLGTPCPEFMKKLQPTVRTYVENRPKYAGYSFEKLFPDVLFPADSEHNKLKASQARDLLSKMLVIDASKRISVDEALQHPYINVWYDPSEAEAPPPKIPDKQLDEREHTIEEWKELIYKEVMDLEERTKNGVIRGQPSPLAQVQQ
Sequence of BRaf (P15056 whole entry): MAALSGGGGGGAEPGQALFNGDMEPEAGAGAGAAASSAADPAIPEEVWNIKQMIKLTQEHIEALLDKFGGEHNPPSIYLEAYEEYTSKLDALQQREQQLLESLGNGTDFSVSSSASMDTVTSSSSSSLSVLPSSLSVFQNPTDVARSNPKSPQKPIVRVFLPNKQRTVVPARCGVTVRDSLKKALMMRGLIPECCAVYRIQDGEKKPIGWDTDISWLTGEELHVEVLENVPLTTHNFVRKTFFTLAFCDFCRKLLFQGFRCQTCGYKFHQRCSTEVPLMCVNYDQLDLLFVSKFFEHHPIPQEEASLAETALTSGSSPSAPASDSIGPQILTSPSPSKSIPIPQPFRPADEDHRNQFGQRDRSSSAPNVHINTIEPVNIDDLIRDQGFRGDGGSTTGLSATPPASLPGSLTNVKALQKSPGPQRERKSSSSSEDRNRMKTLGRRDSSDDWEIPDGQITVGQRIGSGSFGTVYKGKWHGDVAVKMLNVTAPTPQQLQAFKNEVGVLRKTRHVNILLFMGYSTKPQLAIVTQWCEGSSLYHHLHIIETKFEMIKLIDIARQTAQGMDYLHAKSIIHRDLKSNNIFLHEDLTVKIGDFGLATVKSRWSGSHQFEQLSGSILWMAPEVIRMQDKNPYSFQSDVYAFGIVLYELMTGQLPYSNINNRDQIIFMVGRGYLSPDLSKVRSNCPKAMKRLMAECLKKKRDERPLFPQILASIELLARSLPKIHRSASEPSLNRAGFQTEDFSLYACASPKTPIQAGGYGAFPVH

Selectivity BRaf/MKK4 (BRaf)	remaining binding at 0.1 µM (MKK4)	Selectivity JNK1/MKK4 (JNK1; [1])	Selectivity MKK7/MKK4 (MKK7)	Selectivity JNK1/MKK4 (JNK1; Test conc 10 μM)	Compound
17	> 30%	2.2	N/E* (PoC for JNK1 = 100)		CCCS(=O)(=O)Nc1ccc(F)c(C(=O)c2c[nH]c3ncc(-c4ccc(OCC5CC5)cc4Cl)cc23)c1F [Example 100, N-(3-(5-(2-chloro-4-(cyclopropyl-methoxy)phenyl)-1H-pyrrolo[2,3-b]pyridine-3-carbonyl)-2,4-difluorophenyl)propane-1-sulfonamide]
4.2	> 30%		6.7	>10	CCCS(=O)(=O)Nc1ccc(F)c(C(=O)c2c[nH]c3ncc(-c4ccccc4O)cc23)c1F [Example 9, N-(2,4-Difluoro-3-(5-(2-hydroxyphenyl)-1H-pyrrolo[2,3-b]pyridine-3-carbonyl)phenyl)propane-1-sulfonamide]
N/E* (PoC for JNK1 = 100)	< 10%	N/E* (PoC for JNK1 = 100)	N/E* (PoC for JNK1 = 100)		CCCCS(=O)(=O)Nc1cccc(C(=O)c2c[nH]c3ncc(-c4ccc(F)cc4C)cc23)c1F [Example 51]
1.9	> 30%	2.0	2.0		CCCS(=O)(=O)Nc1ccc(F)c(C(=O)c2c[nH]c3ncc(-c4ccc(OC5CCCC5)cc4Cl)cc23)c1F [Example 99, N-(3-(5-(2-chloro-4-(cyclopentyl-oxy)phenyl)-1H-pyrrolo[2,3-b]pyridine-3-carbonyl)-2,4-difluorophenyl)propane-1-sulfonamide]
1.6	> 30%		3	40	CCCS(=O)(=O)Nc1ccc(F)c(C(=O)c2c[nH]c3ncc(-c4cccc5ccccc45)cc23)c1F [Example 18, N-(2,4-Difluoro-3-(5-(naphthalen-1-yl)-1H-pyrrolo[2,3-b]pyridine-3-carbonyl)phenyl)propane-1-sulfonamide]
8.9	< 10%	7.1	N/E* (PoC for JNK1 = 100)		CCCS(=O)(=O)Nc1ccc(F)c(C(=O)c2c[nH]c3ncc(-c4ccc(Cl)cc4F)cc23)c1F [Example 49]
20	< 10%	25	22		CCCS(=O)(=O)Nc1ccc(F)c(C(=O)c2c[nH]c3ncc(-c4ccc(O)cc4Cl)cc23)c1F [Example 94, N-(3-(5-(2-chloro-4-hydroxy-phenyl)-1H-pyrrolo[2,3-b]pyridine-3-carbonyl)-2,4-difluoro-phenyl)propane-1-sulfonamide]
8.0	10 to 30%	8.7	N/E* (PoC for JNK1 = 100)		CCCS(=O)(=O)Nc1ccc(F)c(C(=O)c2c[nH]c3ncc(-c4ccc(OC(C)C)cc4Cl)cc23)c1F [Example 96, N-(3-(5-(2-chloro-4-isopropoxy-phenyl)-1H-pyrrolo[2,3-b]pyridine-3-carbonyl)-2,4-difluorophenyl)-propane-1-sulfonamide]
2.0	10 to 30%		30	>100	CCCS(=O)(=O)Nc1ccc(F)c(C(=O)c2c[nH]c3ncc(-c4ccc5c(c4)OCCO5)cc23)c1F [Example 15, N-(3-(5-(2,3-Dihydrobenzo[b][1,4]dioxin-6-yl)-1H-pyrrolo[2,3-b]pyridine-3-carbonyl)-2,4-difluorophenyl)propane-1-sulfonamide]
17	< 10%	N/E* (PoC for JNK1 = 100)	N/E* (PoC for JNK1 = 100)		CCCS(=O)(=O)Nc1ccc(F)c(C(=O)c2c[nH]c3ncc(-c4ccc(OCOC)cc4Cl)cc23)c1F [Example 102, N-(3-(5-(2-chloro-4-(methoxymethoxy)phenyl)-1H-pyrrolo[2,3-b]pyridine-3-carbonyl)-2,4-difluorophenyl)propane-1-sulfonamide]
